Data as given in patent publication US20260263357A1, “PHASE SHIFTING INTRAVITREAL TAMPONADE” (Avant Sciences, Inc., priority 2023, published 2026).
Read-outs that look alike come from different tables or passages of the source.

Columns and labels:
[1] = cited from earlier work
[2] = cited from earlier work; remark: listed apart in the source
[3] = system: New Zealand white rabbits; assay: Fundus imaging of tamponade bubble after injection into rabbit vitreous cavity (phase shift and removal); format: in vivo; settings: 8 microliters injected into rabbit vitreous cavity
Experimental: The biological safety of a compound of Structure 1 is tested within an animal model. In particular, 2,2,2-Trifluoroethyl 1,1,2,2-tetrafluoroethyl ether was tested within a New Zealand white rabbits, an animal model in line with previous retinal tamponade studies (Santos et al., Retina, 33 (1): p 120-127 (1991)).
(§1) FIG. 1A includes a set of control retinal fundus images (near-infrared images IR and corresponding color images MC) for which balanced salt solution BSS (effectively water) was injected into a rabbit vitreous cavity. […] In other words, 2,2,2-Trifluoroethyl 1,1,2,2-tetrafluoroethyl ether was empirically determined to successfully phase shift under biological conditions at around 1 week post placement, and then subsequently carried out of the body over the next 2 months. […]
as §1, with “6A” for “1A”, “1,1,2,3,3,3-Hexafluoropropyl difluoromethyl” for “2,2,2-Trifluoroethyl 1,1,2,2-tetrafluoroethyl”, “1-3 days” for “1 week”, “subsequently fully” for “subsequently”, “by Day 8.” for “over the next 2 months.”

[4] = system: New Zealand white rabbits; assay: Intraocular pressure measurements after intravitreal injection; format: in vivo, rabbit
Source text: (§2) Additionally, to address concerns about biological toxicity of these compounds, intraocular pressure measurements and both scotopic a-wave, b-wave, and photopic b-wave ERGs were done on all 6 rabbits in the study, without any statistically notable adverse signals (FIG. 2-5).
Additionally, to address concerns about biological toxicity of these compounds, intraocular pressure measurements were done on all 4 rabbits in the study, without any statistically notable adverse signals.

[5] = system: New Zealand white rabbits; assay: Scotopic a-wave, b-wave and photopic b-wave ERGs after intravitreal injection; format: in vivo, rabbit; settings: baseline and 2 months
Source text: as §2

[6] = Experimental ultrasound absorbance (amplitude attenuation coefficient); format: physicochemical
Source text: In some embodiments, the compounds of Structure 1 are capable of absorbing ultrasonic wave energy. The capacity of a given chemical to convert applied ultrasound from vibrational energy into heat is termed its ultrasonic absorbance, which itself varies depending upon the initial temperature and the frequency of the applied ultrasound. Additionally, the native vitreous within biological tissues approximates that of water, which itself has an ultrasonic absorption profile; thus, there is a baseline transmission of acoustic energy through ocular tissues, and this characteristic is routinely leveraged when it comes to various forms of imaging and therapy (Southern, Australas J Ultrasound Med. 2009 February; 12 (1): 32-37). In some embodiments, a compound that can preferentially absorb ultrasound more readily than that of water has the capacity to disproportionately absorb applied ultrasonic energy versus that of vitreous within the vitreous cavity. As such absorption would lead to local increase in temperature, thus facilitate the phase shift to a gaseous state.
With reference to Table 3, a compound with a larger amplitude attenuation coefficient absorbs ultrasound more than a compound that has a lower amplitude attenuation coefficient. It is clear that each of the compounds of Structure 1 (as shown in Table 3) is orders of magnitude more likely to absorb ultrasonic energy than water/vitreous. […] Indeed, it is notable that water, the least absorptive compound shown, is not only clearly symmetric on both a rotational axis and the mirror plane, but also has some of the strongest hydrogen bond forces in all of chemistry, allowing it to “pack itself together” much more readily than the other compounds on the list.

[7] = Table 5; cited from earlier work
[8] = Table 1, selected fluorinated alkanes
[9] = Table 2, selected fluorinated ethers
[10] = 6 rabbits, up to about two months after injection, FIG. 2
[11] = 4 rabbits, up to about 1 month after injection, FIG. 7

SMILES | Flammable? [1, 8] | Flammable? [1, 9] | Boiling Point [2, 9] | Boiling Point ([2]; Table 5) | Density [7] | also measured
FC(F)C(F)(F)C(F)(F)F [1,1,1,2,2,3,3-Heptafluoropropane] | No | – | – | – | – | Boiling Point [2, 8]: −16 °C
CC(F)(F)OCC(F)(F)F [1,1-Difluoroethyl 2,2,2-trifluoroethyl ether] | – | YES | – | – | – | –
FC(F)C(F)(F)OCC(F)(F)F [2,2,2-Trifluoroethyl 1,1,2,2-tetrafluoroethyl ether] | – | No | 56 °C | 56.7 °C | 1.487 g/mL | Time over which agent is carried out of the body after phase shift ([3]; fundus images to D56): ~2 months; Intraocular pressure compared to control (Balanced Salt Solution) [4, 10]: not significantly different; Intraocular pressure relative to normal physiologic range [4, 10]: nor were their intraocular pressures outside of normal physiologic range throughout the study; Scotopic a-wave ERG amplitude (rod and cone cells, dark-adapted) vs control (Balanced Salt Solution) ([5]; FIG. 3): no significant difference; Scotopic b-wave ERG amplitude (bipolar cells, dark-adapted) vs control (Balanced Salt Solution) ([5]; FIG. 4): no significant difference; Photopic b-wave ERG amplitude (bipolar cells, light-adapted) vs control (Balanced Salt Solution) ([5]; FIG. 5): no significant difference; Amplitude Attenuation Coefficient [6]: 2.65 db/cm-MHz
O [Water, reference compound] | – | – | – | – | – | Amplitude Attenuation Coefficient [6]: 0.002 db/cm-MHz
CCOC(F)(F)C(F)(F)F [Ethyl pentafluoroethyl ether] | – | YES | 30 °C | – | – | –
FC(F)C(F)(F)C(F)F [1,1,2,2,3,3-Hexafluoropropane] | No | – | – | – | – | Boiling Point [2, 8]: 5 °C
FC(F)(F)C(F)(F)C(F)(F)F [Perfluoropropane] | No | – | – | – | – | –
FC(F)OC(F)(F)C(F)C(F)(F)F (centres unmarked) [1,1,2,3,3,3-Hexafluoropropyl difluoromethyl ether] | – | No | 47 °C | 47 °C | 1.5 g/mL | Day by which agent is fully carried out of the body ([3]; fundus images to D30): ≤ 8 days; Intraocular pressure compared to control (Balanced Salt Solution) [4, 11]: not significantly different; Intraocular pressure relative to normal physiologic range [4, 11]: nor were their intraocular pressures outside of normal physiologic range throughout the study; Amplitude Attenuation Coefficient [6]: 3.35 db/cm-MHz
FCCC(F)(F)F [1,1,1,3-Tetrafluoropropane] | YES | – | – | – | – | –
FC(OC(F)(F)C(F)(F)C(F)(F)F)C(F)(F)F (centres unmarked) [Heptafluoropropyl 1,2,2,2-tetrafluoroethyl ether] | – | No | 40 °C | 40 °C | 1.538 g/mL | Amplitude Attenuation Coefficient [6]: 3.58 db/cm-MHz
FCCC(F)F [1,1,3-Trifluoropropane] | YES | – | – | – | – | –
FCOCF [Bis(fluoromethyl) ether] | – | YES | 34 °C | – | – | –
COC(F)(F)C(F)F [tetrafluoroethyl methyl ether] | – | YES | 37 °C | – | – | –
FCC(F)(F)C(F)F [1,1,2,2,3-Pentafluropropane] | YES | – | – | – | – | Boiling Point [2, 8]: 26 °C
COC(F)C(F)(F)F (centres unmarked) [1,2,2,2-Tetrafluoroethyl methyl ether] | – | YES | – | – | – | –
FC(F)OCC(F)(F)C(F)(F)F [Difluoromethyl 2,2,3,3,3-pentafluoropropyl ether] | – | No | 46 °C | 46 °C | 1.46 g/mL | Amplitude Attenuation Coefficient [6]: 0.57 db/cm-MHz
FC(F)C(F)(F)COCC(F)(F)C(F)F [1,1,2,2-Tetrafluoro-3-(2,2,3,3-tetrafluoropropoxy)propane, reference compound] | – | – | – | 35 °C | 1.627 g/mL | –
FC(C(F)(F)F)C(F)(F)OCC(F)(F)C(F)(F)C(F)(F)F (centres unmarked) [1,1,1,2,2,3,3-Heptafluoro-4-(1,1,2,3,3,3-hexafluoropropoxy)butane, reference compound] | – | – | – | 102 °C | 1.63 g/mL | –
COC(F)(F)C(F)(F)C(F)(F)F [Heptafluoropropyl methyl ether] | – | No | 34 °C | – | – | –
